One data set concerns the target T1, LBAT (Homo sapiens, UniProt Q14973).
T1 construct: expressed in transfected cells; host or cells: CHO cells
In words: In vitro uptake by CHO cells transfected with LBAT, evaluated by LC-MS/MS. Type of data set: cell-based. The settings on record: 0.06 to 1000 μM, 10 min. On the procedure: (§1) Active transport of (4) by the bile acid transport system was evaluated in vitro by incubation of (4) or glycocholate (control substrate) with untransfected CHO K1 cells or CHO cells transfected with either IBAT or LBAT. Cells (10^5 cells/mL) were incubated in 96 well plates with varying concentrations (0.06 to 1000 μM) of (4) or glycocholate for 10 min. Cells were then washed with Hank's Balanced Salt Solution (HBSS) and lysed and extracted by addition of 100 μL of water followed by sonication. Concentrations of (4) or glycocholate in cell extracts were determined by direct injection onto an API 2000 LC/MS/MS equipped with an Agilent 1100 binary pump and autosampler. Separation was achieved using a Keystone BDS Hypersil 2×50 mm column heated to 45° C. during the analysis. The mobile phases were: 0.1% formic acid in water (A) and 0.1% formic acid in acetonitrile (B). The gradient condition was: 5% B for 1 min, increasing to 90% B in 0.2 min, maintained for 2.8 min and returning to 5% B for 2 min. A TurboIonSpray source was used on the API 2000. The analysis was performed in the positive ion mode and MRM transitions of 466/412 and 562/154 were used in the analysis of glycocholate and (4), respectively. Ten microliters of the cell extracts were injected. Peaks were integrated using Analyst quantitation software. […]

The target of another data set is IBAT (Homo sapiens, UniProt Q12908). In words: In vitro uptake by CHO cells transfected with IBAT, evaluated by LC-MS/MS. Type of data set: cell-based. Set-up: expressed in transfected cells; host or cells: CHO cells. The following applies: 0.06 to 1000 μM, 10 min. On the procedure:
as §1

Another data set can be described thus: in vivo. The following applies: male, Sprague-Dawley, rat, po, 85.25 mg/kg. Here is the method: (§2) The pharmacokinetics of the prodrug (4) were examined in rats. Three groups of four male Sprague-Dawley rats (approx 200 g) with jugular cannulae each received one of the following treatments: A) a single bolus intravenous injection of gabapentin (25 mg/kg, as a solution in water); B) a single oral dose of gabapentin (25 mg/kg, as a solution in water) administered by oral gavage; C) a single oral dose of (4) (85.25 mg/kg, as a solution in water) administered by oral gavage. Animals were fasted overnight prior to dosing and until 4 hours post-dosing. Serial blood samples were obtained over 24 hours following dosing and blood was processed for plasma by centrifugation. Plasma samples were stored at −80° C. until analyzed. Concentrations of (4) or gabapentin in plasma samples were determined by LC/MS/MS as described in Example 35. Plasma (50 μL) was precipitated by addition of […] of methanol and supernatent was injected directly onto the LC/MS/MS system. The method was linear for gabapentin over the concentration range 0.001 to 20 ng/mL and for (4) over the concentration range 0.01 to 10 ng/mL.
as §2, with “prodrug Cholyl-Phe-Gabapentin (7g)” for “prodrug (4)”, “of (7g) (103.5” for “of (4) (85.25”, “of (7g)” for “of (4)”, “or (2)” for “or gabapentin”, “described above.” for “described in Example 35.”, “system.” for “system. The method was linear for gabapentin over the concentration range 0.001 to 20 ng/mL and for (4) over the concentration range 0.01 to 10 ng/mL.”

T1 sequence (Q14973 whole entry): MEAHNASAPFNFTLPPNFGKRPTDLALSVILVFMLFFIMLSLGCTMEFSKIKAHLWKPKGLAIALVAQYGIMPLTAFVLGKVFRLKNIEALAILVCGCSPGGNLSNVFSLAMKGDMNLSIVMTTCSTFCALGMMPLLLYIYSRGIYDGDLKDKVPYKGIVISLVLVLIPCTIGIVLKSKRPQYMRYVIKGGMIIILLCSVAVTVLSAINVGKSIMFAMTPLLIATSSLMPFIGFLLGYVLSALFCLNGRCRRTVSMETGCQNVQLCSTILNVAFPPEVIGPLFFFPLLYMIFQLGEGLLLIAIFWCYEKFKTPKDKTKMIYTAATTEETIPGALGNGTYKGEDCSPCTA
IBAT, sequence (Q12908 whole entry): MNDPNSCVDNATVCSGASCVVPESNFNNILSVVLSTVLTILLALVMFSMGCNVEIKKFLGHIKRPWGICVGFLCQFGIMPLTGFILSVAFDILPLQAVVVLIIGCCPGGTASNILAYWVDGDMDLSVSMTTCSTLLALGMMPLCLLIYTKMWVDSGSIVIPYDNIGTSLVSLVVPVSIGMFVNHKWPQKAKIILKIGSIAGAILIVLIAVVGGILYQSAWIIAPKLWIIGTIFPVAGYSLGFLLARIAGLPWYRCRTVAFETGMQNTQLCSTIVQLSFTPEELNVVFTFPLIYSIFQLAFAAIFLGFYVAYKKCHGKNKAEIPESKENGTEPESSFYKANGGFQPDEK

A word on the half-life: it is the time needed for the level to fall by half in the phase considered. As for `CC(CCC(=O)NCC1(CC(=O)O)CCCCC1)C1CCC2C3C(O)CC4CC(O)CCC4(C)C3CC(O)C12C` (centres unmarked) [Compound (4)], on LBAT, the “Active uptake by bile acid transport system” value is on record as “Active uptake”. The “Active uptake by bile acid transport system” value at IBAT is “Active uptake”. In addition, in the data set “in vivo”, the “concentrations of intact (4) in plasma sustained out to” value worked out at 24 h, the half-life is > 12 h and the “time of maximum concentration of intact (4) in plasma” value was ~8 h.

The values above are taken from patent US20050054559A1, “Compounds for sustained release of orally delivered drugs” (priority 2000, published 2005).
